Measurements as given in patent publication US11976058B2, “Aromatic derivatives, preparation methods, and medical uses thereof” (Bioardis LLC, priority 2019, dated 2024).

Target: T1, human FGFR4 (Homo sapiens, UniProt P22455)
T1 construct: human FGFR4 cytoplasmic domain (460-802); GST (N); purchased Carna Biosciences 08-136
Experiment: FGFR4 enzymatic assay (HTRF KinEASE-TK)
Assay type: biochemical
Conditions: wild-type human FGFR4 cytoplasmic domain (460-802), GST-tag; 60 min preincubation at 25° C.; ATP 200 μM; read-out: Potency (IC50), FGFR4 enzymatic assay
Protocol: The ability of compounds to inhibit human FGFR4 tyrosine kinase activities was determined using a commercially available HTRF® KinEASE™-TK kit (CISBIO, Cat #62TK0PEC) according to the manufacturer's protocol. Wild-type human FGFR4 cytoplasmic domain (460-802) with N-terminal GST-tag was purchased from Carna Biosciences (Carna, Cat #08-136) and used in the kinase enzymatic assay. This assay, run in a 384-well plate format, is a generic method for measuring tyrosine kinase activities using one substrate and a universal detection system. It involves two steps: (1) Enzymatic step: the biotin labeled TK Substrate is incubated with the kinase and then ATP is added to start the enzymatic reaction; during this step, FGFR4 will phosphorylate the TK Substrate-biotin. (2) Detection step: The TK-Antibody labeled with Eu^3+-Cryptate can recognize the phosphorylated TK Substrate-biotin. When the streptavidin-XL665 conjugate binds the biotin, a FRET signal will be detected. Briefly, human FGFR4 (0.25 μg/ml) in the enzymatic buffer solutions (250 mM HEPES, pH7.0, 0.1% NaN3, 0.05% BSA, 0.5 mM Orthovanadate) were mixed with various concentrations of the test compound (dissolved in 100% DMSO). These solutions were incubated for 60 min at 25° C., and subsequently a mixture of substrate peptide and ATP was added with the final peptide and ATP concentrations at 0.3 μM and 200 μM respectively. The final reaction mixture of enzyme-substrate-ATP-compound was incubated for 40 min at 37° C. Meanwhile the detection mixture containing the TK-antibody and Streptavidin-XL665 diluted in the detection buffer (50 mM HEPES, pH7.0, with additives) was prepared, and added to the reaction mixture at final concentrations of 25 nM and 18.5 nM respectively. After incubation for 60 min at 25° C., the FRET signal of the final solution was measured at 665 nm and 612 nm emissions on a TECAN Spark 10M instrument (TECAN). The percent (%) inhibition at each concentration of a compound was calculated relative to the FRET signal in the Max and Min control wells contained within each assay plate. The Max control wells contained enzyme and substrate as 0% inhibition, and the Min control wells only contained substrate without enzyme as 100% inhibition. The concentrations and percent inhibition values for a test compound are plotted and the concentration of the compound required to achieve 50% inhibition (IC50) was determined with a four-parameter logistic dose response equation. Dose-response curves were generated using Prism (GraphPad Software, La Jolla, CA, US) to calculate IC50 values for each compound tested.

T1 sequence (P22455 460-802): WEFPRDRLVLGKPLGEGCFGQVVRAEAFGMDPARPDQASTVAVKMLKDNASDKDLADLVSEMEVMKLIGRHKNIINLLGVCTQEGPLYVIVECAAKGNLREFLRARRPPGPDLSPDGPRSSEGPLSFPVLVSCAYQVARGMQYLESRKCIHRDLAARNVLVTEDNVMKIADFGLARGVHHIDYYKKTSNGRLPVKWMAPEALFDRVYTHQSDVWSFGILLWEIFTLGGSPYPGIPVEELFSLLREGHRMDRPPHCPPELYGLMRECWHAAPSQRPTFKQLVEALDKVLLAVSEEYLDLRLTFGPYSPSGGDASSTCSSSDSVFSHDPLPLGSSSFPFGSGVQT

Row | Structure (SMILES) | IC50 [µM]
1 | C=C(C)C(=O)Nc1cnn(C)c1-c1n[nH]c2c1CCC(c1c(Cl)c(OC)cc(OC)c1Cl)C2 (single isomer, unassigned) [Compound S2-P1, N-(5-(6-(2,6-dichloro-3,5-Dimethoxyphenyl)-4,5,6,7-tetrahydro-1H-indazol-3-yl)-1-methyl-1H-pyrazol-4-yl) Methacrylamide] | > 0.1
2 | C=C(C)C(=O)Nc1cnn(C)c1-c1n[nH]c2c1CCC(c1c(Cl)c(OC)cc(OC)c1Cl)C2 (single isomer, unassigned) [Compound S2-P2, N-(5-(6-(2,6-dichloro-3,5-Dimethoxyphenyl)-4,5,6,7-tetrahydro-1H-indazol-3-yl)-1-methyl-1H-pyrazol-4-yl) Methacrylamide] | > 0.1
3 | C=CC(=O)NC1CCOCC1c1n[nH]c2c1CC[C@H](c1c(Cl)c(OC)cc(OC)c1Cl)C2 (single isomer, unassigned) [Compound S7-P1] | > 0.1
4 | C=CC(=O)NC1CCOCC1c1n[nH]c2c1CC[C@H](c1c(Cl)c(OC)cc(OC)c1Cl)C2 (single isomer, unassigned) [Compound S7-P2] | > 0.1
5 | C=CC(=O)Nc1cnn(CC(F)(F)F)c1-c1n[nH]c2c1CCC(c1c(F)c(OC)cc(OC)c1F)C2 (single isomer, unassigned) [Compound S18-P1, N-(5-(6-(2,6-difluoro-3,5-dimethoxyphenyl)-4,5,6,7-tetrahydro-1H-indazol-3-yl)-1-(2,2,2-trifluoroethyl)-1H-pyrazol-4-yl)acrylamide] | > 0.1
6 | C=CC(=O)Nc1cnn(CC(F)(F)F)c1-c1n[nH]c2c1CCC(c1c(F)c(OC)cc(OC)c1F)C2 (single isomer, unassigned) [Compound S18-P2, N-(5-(6-(2,6-difluoro-3,5-dimethoxyphenyl)-4,5,6,7-tetrahydro-1H-indazol-3-yl)-1-(2,2,2-trifluoroethyl)-1H-pyrazol-4-yl)acrylamide] | > 0.1
7 | COc1cc(OC)c(F)c(C2CCc3c(-c4c(NC(C)=O)cnn4C)n[nH]c3C2)c1F (single isomer, unassigned) [Compound S19-P1, N-(5-(6-(2,6-difluoro-3,5-dimethoxyphenyl)-4,5,6,7-tetrahydro-1H-indazol-3-yl)-1-methyl-1H-pyrazol-4-yl)acetamide] | > 0.1
8 | COc1cc(OC)c(F)c(C2CCc3c(-c4c(NC(C)=O)cnn4C)n[nH]c3C2)c1F (single isomer, unassigned) [Compound S19-P2, N-(5-(6-(2,6-difluoro-3,5-dimethoxyphenyl)-4,5,6,7-tetrahydro-1H-indazol-3-yl)-1-methyl-1H-pyrazol-4-yl)acetamide] | > 0.1
9 | CCC(=O)Nc1cnn(C)c1-c1n[nH]c2c1CCC(c1c(F)c(OC)cc(OC)c1F)C2 (single isomer, unassigned) [Compound S20-P1, N-(5-(6-(2,6-difluoro-3,5-dimethoxyphenyl)-4,5,6,7-tetrahydro-1H-indazol-3-yl)-1-methyl-1H-pyrazol-4-yl)propionamide] | > 0.1
10 | CCC(=O)Nc1cnn(C)c1-c1n[nH]c2c1CCC(c1c(F)c(OC)cc(OC)c1F)C2 (single isomer, unassigned) [Compound S20-P2, N-(5-(6-(2,6-difluoro-3,5-dimethoxyphenyl)-4,5,6,7-tetrahydro-1H-indazol-3-yl)-1-methyl-1H-pyrazol-4-yl)propionamide] | > 0.1
11 | C=C(F)C(=O)Nc1cnn(C)c1-c1n[nH]c2c1CCC(c1c(F)c(OC)cc(OC)c1F)C2 (single isomer, unassigned) [Compound S21-P1, N-(5-(6-(2,6-difluoro-3,5-dimethoxyphenyl)-4,5,6,7-tetrahydro-1H-indazol-3-yl)-1-methyl-1H-pyrazol-4-yl)-2-fluoroacrylamide] | > 0.1
12 | C=C(F)C(=O)Nc1cnn(C)c1-c1n[nH]c2c1CCC(c1c(F)c(OC)cc(OC)c1F)C2 (single isomer, unassigned) [Compound S21-P2, N-(5-(6-(2,6-difluoro-3,5-dimethoxyphenyl)-4,5,6,7-tetrahydro-1H-indazol-3-yl)-1-methyl-1H-pyrazol-4-yl)-2-fluoroacrylamide] | > 0.1
13 | C=CC(=O)N[C@H]1COC[C@H]1c1n[nH]c2c1CC[C@@H](c1c(Cl)c(OC)cc(OC)c1Cl)C2 [Compound S10-P1, N-((3R,4R)-4-((R)-6-(2,6-dichloro-3,5-dimethoxyphenyl)-4,5,6,7-tetrahydro-1H-indazol-3-yl)tetrahydrofuran-3-yl)acrylamide] | > 0.1
14 | C=CC(=O)N[C@@H]1COC[C@@H]1c1n[nH]c2c1CC[C@@H](c1c(Cl)c(OC)cc(OC)c1Cl)C2 [Compound S10-P2, N-((3S,4S)-4-((R)-6-(2,6-dichloro-3,5-dimethoxyphenyl)-4,5,6,7-tetrahydro-1H-indazol-3-yl)tetrahydrofuran-3-yl)acrylamide] | > 0.1
15 | C=CC(=O)N[C@@H]1COC[C@@H]1c1n[nH]c2c1CC[C@H](c1c(Cl)c(OC)cc(OC)c1Cl)C2 [Compound S10-P3, N-((3S,4S)-4-((S)-6-(2,6-dichloro-3,5-dimethoxyphenyl)-4,5,6,7-tetrahydro-1H-indazol-3-yl)tetrahydrofuran-3-yl)acrylamide] | > 0.1
16 | C=CC(=O)N[C@H]1COC[C@H]1c1n[nH]c2c1CC[C@H](c1c(Cl)c(OC)cc(OC)c1Cl)C2 [Compound S10-P4, N-((3R,4R)-4-((S)-6-(2,6-dichloro-3,5-dimethoxyphenyl)-4,5,6,7-tetrahydro-1H-indazol-3-yl)tetrahydrofuran-3-yl)acrylamide] | > 0.1
17 | C=CC(=O)N[C@H]1COC[C@H]1c1n[nH]c2c1CC[C@H](c1c(F)c(OC)cc(OC)c1F)C2 [Compound S13-P1, N-((3R,4R)-4-((S)-6-(2,6-difluoro-3,5-dimethoxyphenyl)-4,5,6,7-tetrahydro-1H-indazol-3-yl)tetrahydrofuran-3-yl)acrylamide] | > 0.1
18 | C=CC(=O)N[C@@H]1COC[C@@H]1c1n[nH]c2c1CC[C@H](c1c(F)c(OC)cc(OC)c1F)C2 [Compound S13-P2, N-((3S,4S)-4-((S)-6-(2,6-difluoro-3,5-dimethoxyphenyl)-4,5,6,7-tetrahydro-1H-indazol-3-yl)tetrahydrofuran-3-yl)acrylamide] | > 0.1
19 | C=CC(=O)N[C@H]1COC[C@H]1c1n[nH]c2c1CC[C@H](c1cc(OC)cc(OC)c1F)C2 [Compound S13-P3, N-((3R,4R)-4-((S)-6-(2-fluoro-3,5-dimethoxyphenyl)-4,5,6,7-tetrahydro-1H-indazol-3-yl)tetrahydrofuran-3-yl)acrylamide] | > 0.1
20 | C=CC(=O)N[C@@H]1COC[C@@H]1c1n[nH]c2c1CC[C@H](c1cc(OC)cc(OC)c1F)C2 [Compound S13-P4, N-((3S,4S)-4-((S)-6-(2-fluoro-3,5-dimethoxyphenyl)-4,5,6,7-tetrahydro-1H-indazol-3-yl)tetrahydrofuran-3-yl)acrylamide] | > 0.1
21 | C=CC(=O)Nc1cnn(CC)c1-c1n[nH]c2c1CC[C@@H](c1cc(OC)cc(OC)c1F)C2 [Compound S14-P3, (R)—N-(1-ethyl-5-(6-(2-fluoro-3,5-dimethoxyphenyl)-4,5,6,7-tetrahydro-1H-indazol-3-yl)-1H-pyrazol-4-yl) acrylamide] | > 0.1
22 | COC(=O)/C=C/C(=O)Nc1cnn(C)c1-c1n[nH]c2c1CC[C@H](c1c(F)c(OC)cc(OC)c1F)C2 [Compound S22, methyl (S,E)-4-((5-(6-(2,6-difluoro-3,5-dimethoxyphenyl)-4,5,6,7-tetrahydro-1H-indazol-3-yl)-1-methyl-1H-pyrazol-4-yl)amino)-4-oxobut-2-enoate] | > 0.1
23 | COc1cc(OC)c(F)c([C@H]2CCc3c(-c4c(NC(=O)/C=C/C(=O)OC(C)C)cnn4C)n[nH]c3C2)c1F [Compound S23, isopropyl (S,E)-4-((5-(6-(2,6-difluoro-3,5-dimethoxyphenyl)-4,5,6,7-tetrahydro-1H-indazol-3-yl)-1-methyl-1H-pyrazol-4-yl)amino)-4-oxobut-2-enoate] | > 0.1
24 | COc1cc(OC)c(F)c([C@H]2CCc3c(-c4c(NC(=O)C5CO5)cnn4C)n[nH]c3C2)c1F (stereo partly drawn) [Compound S24, N-(5-((S)-6-(2,6-difluoro-3,5-dimethoxyphenyl)-4,5,6,7-tetrahydro-1H-indazol-3-yl)-1-methyl-1H-pyrazol-4-yl)oxirane-2-carboxamide] | > 0.1
